The source of these data is patent publication US20250230155A1 (Vanderbilt University, priority 2021, published 2025).

In this test the target is T1, human mAChR M4 (Homo sapiens, UniProt P08173).
T1 construct: expressed in transfected cells
T1 sequence (P08173 1-479): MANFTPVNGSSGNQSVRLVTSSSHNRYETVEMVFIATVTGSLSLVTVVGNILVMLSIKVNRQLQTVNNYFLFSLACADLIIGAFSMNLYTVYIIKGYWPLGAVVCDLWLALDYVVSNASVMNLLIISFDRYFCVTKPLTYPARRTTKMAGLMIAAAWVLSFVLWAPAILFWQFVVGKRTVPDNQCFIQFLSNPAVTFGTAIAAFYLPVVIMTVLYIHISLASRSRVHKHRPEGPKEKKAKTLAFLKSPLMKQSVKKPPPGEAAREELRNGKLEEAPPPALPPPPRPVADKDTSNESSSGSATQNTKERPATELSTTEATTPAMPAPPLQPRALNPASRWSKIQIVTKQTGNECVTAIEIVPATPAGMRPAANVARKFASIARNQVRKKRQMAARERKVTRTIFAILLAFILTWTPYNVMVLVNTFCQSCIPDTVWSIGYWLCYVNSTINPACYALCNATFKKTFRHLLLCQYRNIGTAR
The test can be described thus: mAChR M4 cell-based functional assay (calcium mobilization, CHO-K1 hM4-Gqi5 cells). The settings on record: for EC50: positive allosteric modulator activity, increase in the EC20 acetylcholine response, CHO-K1 hM4-Gqi5 cells, read-out: Human M4 EC50; for Emax at 30 µM: CHO-K1, % ACh maximum at 30 μM, human M4. The protocol: Human and rat M4 cDNAs, along with the chimeric G protein Gqi5, were transfected into Chinese hamster ovary (CHO-K1) cells purchased from the American Type Culture Collection using Lipofectamine2000. hM4-Gqi5 cells were grown in Ham's F-12 medium containing 10% heat-inactivated fetal bovine serum (FBS), 20 mM HEPES, 50 μg/mL G418 sulfate, and 500 μg/mL Hygromycin B. rM4-Ggi5 cells were grown in DiVEM containing 10% heat-inactivated FBS, 20 mM THEPES, 400 μμg/mL G418 sulfate, and 500 μμg/mL Hygromycin B.
For high throughput measurement of agonist-evoked increases in intracellular calcium, CHO-K1 cells stably expressing muscarinic receptors were plated in growth medium lacking G418 and hygromycin at 15,000 cells/20 μL/well in Greiner 384-well black-walled, tissue culture (TC)-treated, clear-bottom plates (VWR). Cells were incubated overnight at 37° C. and 5% CO2. The next day, cells were washed using an ELX 405 (BioTek) with assay buffer; the final volume was then aspirated to 20 μL. Next, 20 μL of a […] of Fluo-4/acetoxymethyl ester (Invitrogen, Carlsbad, CA), prepared as a 2.3 mM stock in DMSO and mixed in a 1:1 ratio with 10% (w/v) Pluronic F-127 and diluted in assay buffer, was added to the wells and the cell plates were incubated for 50 min at 37° C. and 5% C02. Dye was removed by washing with the ELX 405 and the final volume was aspirated to 20 μL. Compound master plates were formatted in an 11 point concentration-response curve (CRC) format (1:3 dilutions) in 100% DMSO with a starting concentration of 10 mM using a BRAVO liquid handler (Agilent). Test compound CRCs were then transferred to daughter plates (240 nL) using the Echo acoustic plate reformatter (Labcyte, Sunnyvale, CA) and then diluted into assay buffer (40 μL) to a 2× stock using a Thermo Fisher Combi (Thermo Fisher Scientific, Waltham, MA).
Calcium flux was measured using the Functional Drug Screening System (FDSS) 6000 or 7000 (Hamamatsu Corporation, Tokyo, Japan) as an increase in the fluorescent static ratio. Compounds were applied to cells (20 μL, 2×) using the automated system of the FDSS at 2-4 seconds into the protocol and the data were collected at 1 Hz. At 144 seconds, 10 μL of an EC20 concentration of the muscarinic receptor agonist acetylcholine was added (5×), followed by the addition of 12 μL of an EC80 concentration of acetylcholine at the 230 second time point (5×). Agonist activity was analyzed as a concentration-dependent increase in calcium mobilization upon compound addition. Positive allosteric modulator activity was analyzed as a concentration-dependent increase in the EC20 acetylcholine response. Antagonist activity was analyzed as a concentration-dependent decrease in the EC80 acetylcholine response. Concentration-response curves were generated using a four-parameter logistical equation in XLFit curve fitting software (IDBS, Bridgewater, NJ) for Excel (Microsoft, Redmond, WA) or Prism (GraphPad Software, Inc., San Diego, CA).
Compounds were synthesized as described above. Activity (EC50 and Emax) was determined in the mAChR M4 cell-based functional assay as described above and the data are shown in Table 2. The compound number corresponds to the compound numbers used in Table 1.

As to `Cc1nc(Cl)c(C)c(N2Cc3cc(N)cnc3C(C)C2)n1` (stereo not shown) [compound 255, 6-(6-chloro-2,5-dimethylpyrimidin-4-yl)-8-methyl-5,6,7,8-tetrahydro-1,6-naphthyridin-3-amine], the EC50 came to 2100 nM. For the same molecule, for the setting “CHO-K1”, the Emax amounted to 88%.

For `Cc1nn(C)cc1-c1cnc2c(c1)CN(c1nc(N3CCOCC3)nc(C)c1C)CC2` [compound 270, 4-(4-(3-(1,3-dimethyl-1H-pyrazol-4-yl)-7,8-dihydro-1,6-naphthyridin-6(5H)-yl)-5,6-dimethylpyrimidin-2-yl)morpholine], the Emax at 30 µM was 70% and the EC50 was determined as 896 nM.

`COc1ccc(Oc2cnc3c(c2)CN(c2nc(C)nc(Cl)c2C)CC3)cn1` [compound 205, 6-(6-chloro-2,5-dimethyl-pyrimidin-4-yl)-3-[(6-methoxy-3-pyridyl)oxy]-7,8-dihydro-5H-1,6-naphthyridine]: the Emax at 30 µM was 67% and the EC50 worked out at 1340 nM.

Take `Cc1cc(C#N)cnc1N1CCc2ncc(-n3cccn3)cc2C1` [Example 344, 6-(3-(1H-pyrazol-1-yl)-7,8-dihydro-1,6-naphthyridin-6(5H)-yl)-5-methylnicotinonitrile]: the Emax at 30 µM is 88% and the EC50 was 380 nM.

Consider `Cc1cc(C(=O)NCc2ccc(N3CCOCC3)nc2)cnc1N1CCc2ncc(-c3cn(C)nc3C)cc2C1` [Example 480, 6-(3-(1,3-dimethyl-1H-pyrazol-4-yl)-7,8-dihydro-1,6-naphthyridin-6(5H)-yl)-5-methyl-N-((6-morpholinopyridin-3-yl)methyl)nicotinamide], for which the Emax at 30 µM worked out at 76% and the EC50 is 1390 nM.

As to `Cc1nc2c(c(N3CCc4ncc(C(F)(F)F)cc4C3)n1)CCCC2` [compound 268, 2-methyl-4-(3-(trifluoromethyl)-7,8-dihydro-1,6-naphthyridin-6(5H)-yl)-5,6,7,8-tetrahydroquinazoline], the Emax at 30 µM is 68% and the EC50 was determined as 4190 nM.

`Cc1cc(C(=O)N2CC(C)(F)C2)nnc1N1CCc2ncc(Nc3ccnn3C)cc2C1` [Example 560, (3-fluoro-3-methylazetidin-1-yl)(5-methyl-6-(3-((1-methyl-1H-pyrazol-5-yl)amino)-7,8-dihydro-1,6-naphthyridin-6(5H)-yl)pyridazin-3-yl)methanone]: the Emax at 30 µM came out at 75% and the EC50 stood at 64 nM.

With `Cc1cnc2c(c1)CN(c1ncc(C(=O)NCc3cncs3)cc1C)CC2` [Example 439, 5-methyl-6-(3-methyl-7,8-dihydro-1,6-naphthyridin-6(5H)-yl)-N-(thiazol-5-ylmethyl)nicotinamide], the Emax at 30 µM stood at 108% and the EC50 was 138 nM.

For `Cc1cc(C(=O)NCc2cncs2)cnc1N1CCc2ncc(C(F)(F)F)cc2C1` [Example 443, 5-methyl-N-(thiazol-5-ylmethyl)-6-(3-(trifluoromethyl)-7,8-dihydro-1,6-naphthyridin-6(5H)-yl)nicotinamide], the Emax at 30 µM was 107% and the EC50 turned out to be 157 nM.

As to `Cc1c(C#N)nnc(N2CCc3ncc(Oc4ccc(F)cc4F)cc3C2)c1C` [Example 354, 6-(3-(2,4-difluorophenoxy)-7,8-dihydro-1,6-naphthyridin-6(5H)-yl)-4,5-dimethylpyridazine-3-carbonitrile], the Emax at 30 µM amounted to 64% and the EC50 worked out at 271 nM.

On to `Cc1nc(N2CCCC2)c(C)c(N2CCc3ncc(-c4ccc(F)nc4)cc3C2)n1` [compound 223, 6-(2,5-dimethyl-6-(pyrrolidin-1-yl)pyrimidin-4-yl)-3-(6-fluoropyridin-3-yl)-5,6,7,8-tetrahydro-1,6-naphthyridine], for which the Emax at 30 µM stood at 56% and the EC50 is 3290 nM.
